# Laboratory results taken from US7842802B2, “Vinorelbine derivatives” (priority 2003, dated 2010).
# Like-named read-outs stand apart in the source and are kept apart here.
# What was measured:
# [1] = system: MCF-7 human breast carcinoma line; test: MCF-7 GI50 determination (crystal violet); assay type: cell-based; conditions: Homo sapiens, MCF7, 96 h, read-out: MCF-7 Cells GI50
# Method: Growth inhibition (GI50) values were measured on the human breast carcinoma line, MCF-7. MCF-7 cells were plated at 2×10^4 cells/well in 96 well plates and grown for 24 hours in drug free media. On day 2, test compounds were added to the plates at 10-fold dilutions. Four days later, cells were fixed by the addition of glutaraldehyde to 0.75%. After 30 min, the fixed cells were extensively rinsed with distilled water and dried at room temperature for one hour. The cells were then stained with a 0.2% crystal violet solution for one hour at room temperature. Unbound stain was removed by ten rinses with tap water and plates were allowed to air dry for 30 min. The crystal violet was then solubilized by the addition of 10% acetic acid for 15 min and quantified by measuring absorbance at 570 nm on a Molecular Devices microplate reader. Growth inhibition was calculated according to the following equation: GI=[…], where the optical density (OD) of the test well after 4 days of treatment was T, the OD of the wells in the control plate on day 0 was T0. Plots of percent growth inhibition versus inhibitor concentration were used to determine the GI50.
# [2] = system: HeLa S-3 human cervical carcinoma cell line; test: HeLa GI50 determination (SRB); assay type: cell-based; conditions: Homo sapiens, HeLa S3, 48 h, read-out: HeLa Cells GI50
# Method: Growth inhibition (GI50) values were measured on the human cervical carcinoma cell line, HeLa S-3, which were selected for growth on plastic. The HeLa cell assay was based on the description of Skehan et al., J. Natl. Cancer Inst., 82:1107-12 (1990), which is hereby incorporated by reference in its entirety. HeLa cells were plated at 2×10^4 cells/well in 96 well plates. One day later, a control plate was fixed by the addition of TCA to 5%. After five rinses with tap water, the plate was air-dried and stored at 4° C. Test compounds were added to the remaining plates at 10-fold dilutions. Two days later, all plates were fixed as described above. Cells were then stained by the addition of 100 μL per well of 0.4% sulforhodamine B (SRB) in 1% acetic acid for 30 min at 4° C. Wells were then quickly rinsed 5× with 1% acetic acid and allowed to air dry. The SRB was then solubilized by the addition of 100 μL per well of unbuffered 10 mM Tris base. Dye was quantified by measuring absorbance at 490 nm on a Molecular Devices microplate reader. Growth inhibition was calculated according to the following equation: GI=100×(T−T0)/(C−T0), where the optical density (OD) of the test well after 2 days of treatment was T, the OD of the wells in the control plate on day 0 was T0 and C was the OD of untreated wells. Plots of percent growth inhibition versus inhibitor concentration were used to determine the GI50.
# [3] = MCF-7, 4 days of treatment, crystal violet
# [4] = HeLa S-3, 2 days of treatment, SRB
Structure (SMILES),"GI50 [1, 3] [nM]","GI50 [2, 4] [nM]",GI50 [1] [nM],GI50 [2] [nM]
"CCCC(=O)/C=C/c1ccc2[nH]c3c(c2c1)CN1CC(CC)=C[C@@H](C1)C[C@]3(C(=O)OC)c1cc2c(cc1OC)N(C)[C@H]1[C@@](O)(C(=O)OC)[C@H](OC(C)=O)C3C(CC)=CCN4CC[C@]21[C@H]34 (stereo partly shown) [Example 4, 11′-(3-oxohex-1-enyl) vinorelbine]",300,400,–,–
"CCC1=C[C@H]2CN(C1)Cc1c([nH]c3ccc(SCCCO)cc13)[C@@](C(=O)OC)(c1cc3c(cc1OC)N(C)[C@H]1[C@@](O)(C(=O)OC)[C@H](OC(C)=O)C4C(CC)=CCN5CC[C@]31[C@H]45)C2 (stereo partly shown) [Example 13, 11′-(3-hydroxypropylsulfanyl)vinorelbine]",30,20,–,–
"CCC1=C[C@H]2CN(C1)Cc1c([nH]c3ccc(SCc4ccccc4Cl)cc13)[C@@](C(=O)OC)(c1cc3c(cc1OC)N(C)[C@H]1[C@@](O)(C(=O)OC)[C@H](OC(C)=O)C4C(CC)=CCN5CC[C@]31[C@H]45)C2 (stereo partly shown) [Example 16, 11′-(2-chlorobenzylsulfanyl)vinorelbine]",500,300,–,–
"CCC1=C[C@H]2CN(C1)Cc1c([nH]c3ccc(C#N)cc13)[C@@](C(=O)OC)(c1cc3c(cc1OC)N(C)[C@H]1[C@@](O)(C(=O)OC)[C@H](OC(C)=O)C4C(CC)=CCN5CC[C@]31[C@H]45)C2 (stereo partly shown) [Example 25, 11′-cyanovinorelbine]",6,1,–,–
"CCC1=C[C@H]2CN(C1)Cc1c([nH]c3ccc(SCc4ccccc4F)cc13)[C@@](C(=O)OC)(c1cc3c(cc1OC)N(C)[C@H]1[C@@](O)(C(=O)OC)[C@H](OC(C)=O)C4C(CC)=CCN5CC[C@]31[C@H]45)C2 (stereo partly shown) [Example 15, 11′-(2-fluorobenzylsulfanyl)vinorelbine]",400,200,–,–
"CCC1=C[C@H]2CN(C1)Cc1c([nH]c3ccc(/C=C/C(=O)OC(C)(C)C)cc13)[C@@](C(=O)OC)(c1cc3c(cc1OC)N(C)[C@H]1[C@@](O)(C(=O)OC)[C@H](OC(C)=O)C4C(CC)=CCN5CC[C@]31[C@H]45)C2 (stereo partly shown) [Example 5, 11′-(2-tert-butoxycarbonylvinyl) vinorelbine]",–,–,600,300
"CCC1=C[C@H]2CN(C1)Cc1c([nH]c3ccc(/C=C/C(=O)O)cc13)[C@@](C(=O)OC)(c1cc3c(cc1OC)N(C)[C@H]1[C@@](O)(C(=O)OC)[C@H](OC(C)=O)C4C(CC)=CCN5CC[C@]31[C@H]45)C2 (stereo partly shown) [Example 6, 11′-(carboxyvinyl) vinorelbine]",> 1000,800,–,–
"CCC1=C[C@H]2CN(C1)Cc1c([nH]c3ccc(C#CCOC)cc13)[C@@](C(=O)OC)(c1cc3c(cc1OC)N(C)[C@H]1[C@@](O)(C(=O)OC)[C@H](OC(C)=O)C4C(CC)=CCN5CC[C@]31[C@H]45)C2 (stereo partly shown) [Example 24, 11′-(3-methoxypropynyl)vinorelbine]",300,100,–,–
"CCC1=C[C@H]2CN(C1)Cc1c([nH]c3ccc(C(=O)OCC(Cl)Cl)cc13)[C@@](C(=O)OC)(c1cc3c(cc1OC)N(C)[C@H]1[C@@](O)(C(=O)OC)[C@H](OC(C)=O)C4C(CC)=CCN5CC[C@]31[C@H]45)C2 (stereo partly shown) [Example 29, 11′-(2,2-dichloroethoxycarbonyl)vinorelbine]",300,70,–,–
"CCC1=C[C@H]2CN(C1)Cc1c([nH]c3ccc(SC)cc13)[C@@](C(=O)OC)(c1cc3c(cc1OC)N(C)[C@H]1[C@@](O)(C(=O)OC)[C@H](OC(C)=O)C4C(CC)=CCN5CC[C@]31[C@H]45)C2 (stereo partly shown) [Example 10, 11′-(methylsulfanyl) vinorelbine]",1,0.3,–,–
"CCC1=C[C@H]2CN(C1)Cc1c([nH]c3ccc(C(=O)OCC(Cl)(Cl)Cl)cc13)[C@@](C(=O)OC)(c1cc3c(cc1OC)N(C)[C@H]1[C@@](O)(C(=O)OC)[C@H](OC(C)=O)C4C(CC)=CCN5CC[C@]31[C@H]45)C2 (stereo partly shown) [Example 28, 11′-(2,2,2-trichloroethoxycarbonyl) vinorelbine]",–,–,> 1000,300
